Experimental data as given in patent US20070275936A1, “Formulations and Treatment Methods” (priority 1998, published 2007).

Experiments:
[1] = Oral bioavailability of BrEA formulations in rats; type: in vivo
Procedure: In vivo experiments were conducted to determine the bioavailability of BrEA via oral administration using different formulations. BrEA was (1) solubilized in soya oil, vitamin E oil, a mixture of vitamin E and cremophore or (2) BrEA was micronized and combined with or without a surfactant. These formulations are described below. The formulations were administered orally to rats and BrEA levels were determined in the blood, liver, spleen, kidney, and the lymph nodes. In the studies using micronized BrEA, the brain was evaluated for drug uptake. Twenty-four hour urine and feces were collected when BrEA was solubilized in vitamin E and soya oils and vitamin E mixed with Cremophore. The data from these studies indicate that BrEA enters into the lymphatics but is eliminated rapidly from the other tissues. The amount of ^14C radioactivity recovered in the feces 24 hours after administration was 78 to 83%.
BrEA (5 mg in 1.0 mL of soya oil or vitamin E oil) supplemented with ^14C-labelled BrEA was administered intragastrically to rats. Solubilization of BrEA in the vitamin E or soya oil was facilitated with 50 μL ethanol. Animals (3/time point) were assayed at 1.5, 3, 5.5, and 24 hours after administration and the ^14C-radioactivity was measured in the blood, liver, spleen, kidney, lymph nodes and 24 hour feces and urine. […] The uptake is greater with soya oil than vitamin E oil in the blood, liver, and lymph nodes.
BrEA (5 mg in 1.0 mL of a vitamin E and cremophore) supplemented with ^14C-labelled BrEA was administered intragastrically to rats. Solubilization of BrEA in the vitamin E-cremophore mixture was facilitated by the adding 60 μL ethanol. Animals (4/time point) were sacrificed at 2, 3, 5.5, and 24 hours and ^14C-radioactivity was measured in the blood, liver, spleen, kidney, lymph nodes and 24 hour feces and urine. […] Judging from the values in plasma, liver and lymph nodes, it appears that drug uptake is slower compared with soy oil or vitamin E and its presence in the tissues is more persistent.
Rats, in groups of three males, were orally administered 1.0 mL of 0.9% NaCl containing 10 or 32 mg BrEA micronized with a surfactant, Synperonic PE/F 127 (2.5% wt/wt). Rats were examined at 1.5, 5 and 24 hours after administration. Blood, liver, spleen, kidney, lymph nodes, and brain were assayed for ^14C radioactivity. The levels of BrEA in the blood, in comparison to the experiments with BrEA in Vitamin E oil and soya, were higher, 0.3% at 1.5 hours, and increased after 5 hours to 0.8% and 0.9% of the 10 and 32 mg dose, respectively. Additionally, the values in the lymph nodes were similar to those measured at 1.5 hours and the levels were sustained at 5 hours (5.3 and 5.0%) and 24 hours (3.7 and 3.1%) for the 10 and 32 mg dose, respectively (refer to Table 6).
In a repeated dose experiment, rats were intragastrically administered 1.0 mL 0.9% NaCl containing 2 mg BrEA micronized with Synperonic PE/F 127 (2.5% wt/wt) every 6 to 16 hours. Rats (3/time point) were sacrificed at 40, 72, 84, 90 and 96 hours after the first administration. Blood, liver, spleen, kidney and lymph nodes were assayed for ^14C radioactivity.
Rats, in groups of three males, were orally administered 1.0 mL of 0.9% NaCl containing 2, 4 or 10 mg BrEA micronized without a surfactant. Rats were sacrificed at 1.5, 5 and 24 hours after administration and blood, liver, spleen, kidney, lymph nodes and brain were assayed for ^14C radioactivity. The concentration of BrEA micronized without a surfactant in the observed tissues was lower than BrEA plus a surfactant.

Wistar rats = test: DNBS induced distal colitis in rats; type: in vivo
Procedure: Groups of 3 male Wistar rats (180±20 grams) fasted for 24 hours before 2,4-dinitrobenzene sulfonic acid (DNBS) or saline challenge were used. Distal colitis was induced by intra-colonic instillation of 0.5 mL of an ethanolic solution of DNBS (30 mg in 0.5 mL of a 30% ethanol in saline solution) after which 2 mL of air was injected through the cannula to ensure that the solution remained in the colon. The volume used was 0.1 mL per injection of 2 and 20 mg/mL of 7-oxodehydroepiandrosterone in a liquid formulation, was administered by subcutaneous injection once a day for 6 days. The formulation contained […] of 7-oxodehydroepiandrosterone in a non-aqueous suspension that contained 2% benzyl alcohol w/v, 0.1% Brij 96 w/v and equal volumes of PEG 300 and propylene glycol. Concentrations of 2 mg/mL and 20 mg/mL were obtained by diluting the […] with vehicle that lacked the active substance.
The first dose was given 30 minutes after DNBS challenge. Sulfasalazine (30 mg/mL in 2% Tween 80 in distilled water) was administered orally (PO) once a day (10 mL/kg/day) for 7 days, the first two doses beginning 24 hours and 2 hours before DNBS challenge. The presence of diarrhea was recorded daily by examining the anal area. Animals were fasted for 24 hours prior to being sacrificed. Animals were sacrificed on day 7 or day 8 and their colons were removed and weighed. Before removal of the colon, signs of adhesion between the colon and other organs were recorded. Also, the presence of ulcerations was noted after weighing of each colon. The “net” change of colon-to-body weight (BW) ratio was normalized relative to saline-challenged baseline group. A 30% decrease in “net” colon-to-body weight ratio was considered significant.
A total of five studies were conducted. Data from the first study are reported in this report. The 7-oxodehydroepiandrosterone at 2 and 20 mg/mL, decreased the net colon-to-body weight ratio by 19 and by 14% relative to vehicle-treated group, respectively. […] The formula 1 compound 3β,7β,17β-trihydroxyandrost-5-ene (AET) was administered by subcutaneous injections of 2 and 20 mg/day for 5 or 6 days, with the first dose injected 30 minutes post-DNBS challenge. The AET formulation was the same as the 7-oxodehydroepiandrosterone formulation, except that AET replaced 7-oxodehydroepiandrosterone. AET decreased the net colon-to-body weight ratio by 15% and 21% relative to controls (see the table below). Animals treated with AET (20 mg/kg) had no diarrhea. […] The same formulations containing BrEA hemihydrate (100 mg/mL) or dehydroepiandrosterone (20 mg/mL) decreased the net colon-to-body weight ratio by 21 and 3%, respectively relative to controls.

[2] = micronized with surfactant, 10 mg dose, 5 hours
[3] = micronized with surfactant, 32 mg dose, 5 hours

SMILES	levels of BrEA in the blood ([1]; BrEA micronized with Synperonic PE/F 127, 1.5 hours)	levels of BrEA in the blood [1, 2]	values in the lymph nodes [1, 2]	values in the lymph nodes ([1]; micronized with surfactant, 10 mg dose, 24 hours)	levels of BrEA in the blood [1, 3]	values in the lymph nodes [1, 3]	values in the lymph nodes ([1]; micronized with surfactant, 32 mg dose, 24 hours)	animals with severe acute inflammation (Wistar rats; 7 days after DNBS challenge, 3 of 10 in immunosteroid vehicle controls)	animals with moderate acute inflammation (Wistar rats; 7 days after DNBS challenge, 5 of 10 in immunosteroid vehicle controls)	animals with severe chronic inflammation (Wistar rats; 14 days after DNBS challenge, 8 of 10 in immunosteroid vehicle controls)	decrease of net colon-to-body weight ratio relative to vehicle/controls (Wistar rats; DNBS rats, 20 mg/mL formulation s.c.)	animals with severe ulceration (Wistar rats; day 7 (acute inflammation) after DNBS challenge, vehicle control 8 of 10)	animals with severe ulceration (Wistar rats; day 14 (chronic inflammation) after DNBS challenge, vehicle controls 5 of 10)
C[C@]12CC[C@H](O)C[C@@H]1CC[C@@H]1[C@@H]2CC[C@]2(C)C(=O)[C@H](Br)C[C@@H]12 [BrEA, 16α-bromo-3β-hydroxy-5α-androstane-17-one]	0.3%	0.8%	5.3%	3.7%	0.9%	5.0%	3.1%						
C[C@]12CC[C@H](O)CC1=CC[C@@H]1[C@@H]2CC[C@]2(C)C(=O)CC[C@@H]12 [DHEA, dehydroepiandrosterone, reference compound]								10 animals	0 animals	3 animals	3%	10 of 10	0 of 10
